According to publication PMC7332671 (Acta Pharmaceutica Sinica. B, 2020):
Where two headings read alike, the source gives them in different places.

Key:
Assay in all cases: SPR
Assay type in all cases: binding
[1] = target: T1, P53 (Homo sapiens, UniProt P04637)
[2] = target: T1, P53; remark: listed apart in the source
[3] = target: T1, P53; remark: listed apart in the source

T1 sequence (P04637 94-312): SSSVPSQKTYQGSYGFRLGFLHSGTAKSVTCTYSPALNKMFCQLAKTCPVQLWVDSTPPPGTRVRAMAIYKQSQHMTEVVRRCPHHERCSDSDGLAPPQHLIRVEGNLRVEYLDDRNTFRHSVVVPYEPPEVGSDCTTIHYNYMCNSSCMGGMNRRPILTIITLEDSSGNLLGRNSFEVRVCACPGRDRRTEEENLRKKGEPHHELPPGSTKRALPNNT

Compound	Kd [1] [µM]	also measured
20(S)-Ro	10.2	
CC(C)=CCC[C@](C)(O)[C@H]1CC[C@]2(C)[C@@H]1[C@H](O)C[C@@H]1[C@@]3(C)CC[C@H](O)C(C)(C)[C@@H]3CC[C@]12C [20(S)-PPD]	41.1	
CC(C)=CCC[C@](C)(O)[C@H]1CC[C@]2(C)[C@@H]1[C@H](O)C[C@@H]1[C@@]3(C)CC[C@H](O)C(C)(C)[C@@H]3[C@@H](O)C[C@]12C [(S)-PPT, 20(S)-Protopanaxatriol]		Kd [2]: 6.63 µM
CCn1c2ccccc2c2cc(CNC)ccc21 [PhiKan083]		Kd [3]: 122 µM
